Values after ≈ are worked out from the molar mass of the structure shown. Values belong to the compound of their own block, whether it stands above or below them.
Assays:
P. aeruginosa (Liberec) = experiment: Synergistic effect of peptides with antibiotics, FIC index; format: cell-based, Pseudomonas aeruginosa; conditions: FIC <0.5 synergism, 0.5-2 additive, >2 antagonism, averages of three experiments
Method: MICs values of various combinations of two fold serial dilutions of peptides and antibiotics were determined using the same methodology as in the case of antimicrobial activity determination (Example 2). To consider the type of the final effect, FIC indexes (fractional inhibitory concentration) were used and calculated as follows:
[formula] where MICPC and MICAC are the MICs of the peptide and antibiotic in combination, respectively, and MICP and MICA are the MICs of the peptide and antibiotic tested alone, respectively. FIC<0.5 were considered as synergy, 0.5≤FIC≤2 as addition effect, and FIC>2 as antagonism.

in vitro = conditions: human
Method: The peptides in the concentrations 2-200 μmol.l^−1 were incubated with the suspension of human red blood cells (5% v/v) for 1 h at 37° C. in a physiological solution at a final volume of 0.2 ml. The samples were then centrifuged for 5 min at 250 g, and the absorbance of the supernatant was determined at 540 nm. Supernatants of red blood cells suspended in physiological solution and in 0.2% (v/v) TRITON X100 in physiological solution served as controls for zero hemolysis (blank) and 100% hemolysis, respectively. Hemolytic activity is expressed as the peptide concentration required for lysis of 50% of human erythrocytes in the assay (LC50).

[1] = system: Pseudomonas aeruginosa 5482; conditions: 37° C., 20 h
Method: (§1) Gram-positive bacteria (Micrococcus luteus, Bacillus subtilis, Staphylococcus aureus, Staphylococcus epidermidis and Enterococcus faecalis), Gram-negative bacteria (Escherichia coli and Pseudomonas aeruginosa) and the yeast (Candida albicans) were grown to exponential phase and then were diluted with fresh medium. BHI medium (Oxoid, Great Britain) was used for Enterococcus faecalis; YPD medium containing yeast extract peptone and glucose was used for Candida albicans and LB medium (Sigma, Czech Republic) was used for the remaining microorganisms. Then the microorganisms were added to the solutions of the tested antimicrobial peptides in LB medium in multi-well plates. The final peptide concentration it the wells was in the range of 0.1 to 100 μmol.l^−1. That was made by twofold serial dilution from the peptide stock solution (1 mmol.l^−1). The plates were incubated at 37° C. for 20 h while being continuously shaken in a Bioscreen C (Oy Growth Curves AB Ltd., Helsinki, Finland). Absorbance was measured at 540 nm every 15 min. Antimicrobial activity (Table 2) was determined as a quantitative minimum inhibitory concentration (MIC) by observing bacterial growth in the presence of different concentrations of tested peptides. In the experiments ca 10^5 CFU of bacteria or candida per well were routinely used.
(§2) Multiresistant clinical isolates of bacteria were obtained from University Hospital in Motol, Prague, Czech Republic and from Liberec Regional Hospital, Czech Republic. Methicillin resistant Staphylococcus aureus (MRSA) 6271 and Pseudomonas aeruginosa 5482 were from the Czech National Collection of Type Cultures, the National Institute of Public Health, Prague, Czech Republic. Other bacteria were from the Czech Collection of Microorganisms, Brno, Czech Republic. Candida albicans came from the Faculty of Medicine, Palacky University, Olomouc, Czech Republic.

Candida albicans Olomouc = conditions: Candida albicans Olomouc; YPD medium; 37° C., 20 h (Example 2)
Method: as §1, §2

[2] = system: Staphylococcus epidermidis Motol; conditions: 37° C., 20 h
Method: as §1, §2

[3] = system: Methicillin resistant Staphylococcus aureus (MRSA) 6271; conditions: 37° C., 20 h
Method: as §1, §2

[4] = system: Enterococcus faecalis Motol; conditions: BHI medium, 37° C., 20 h
Method: as §1, §2

Bacillus subtilis = conditions: Bacillus subtilis; 37° C., 20 h
Method: as §1, §2

[5] = system: Staphylococcus aureus Liberec; conditions: Staphylococcus aureus Liberec clinical isolate; 37° C., 20 h
Method: as §1, §2

[6] = system: Staphylococcus aureus Motol; conditions: Staphylococcus aureus Motol clinical isolate; 37° C., 20 h
Method: as §1, §2

[7] = system: Pseudomonas aeruginosa Liberec; conditions: Pseudomonas aeruginosa Liberec; 37° C., 20 h
Method: as §1, §2

Escherichia coli = conditions: 37° C., 20 h
Method: as §1, §2

[8] = system: Candida dubliniensis ATCC MYA-646; experiment: microbe, parasite or virus in culture; format: cell-based; conditions: RPMI broth microdilution, 35° C., 48 hours, visual
Method: (§3) All yeasts Candida albicans (Olomouc) and ATCC MYA-2876, Candida glabrata ATCC 2001 and DSY 565, Candida dubliniensis ATCC MYA-646, Candida krusei ATCC 6258 and Candida tropicalis ATCC 750 were sub-cultured from sterile vials onto Sabouraud dextrose agar, which was composed of 40 g dextrose (Penta, Czech Republic), 10 g peptone (OXOID, Great Britain) and 17 g agar (OXOID), dissolved in 1 l of distilled water, and cultivated for 24 hours at 35° C.
(§4) All strains were stored in a way that minimizes the possibility of mutation. Candida spp. were grown overnight in liquid YPD medium which is composed of 10 g yeast extract (DIFCO, USA), 20 g peptone (OXOID), and 20 g dextrose (Penta) dissolved in 1 l distilled water. Then the overnight culture was cryogenically preserved by suspending in 50% glycerol solution (1:1) in small vials and stored at −80° C.
(§5) The inoculum was prepared by picking five colonies from 24-hour-old cultures of Candida spp. The colonies were suspended in 1 ml of sterile saline solution and vortexed for 15 seconds. Optical density of the suspension was adjusted spectrophotometrically by adding sterile saline solution to produce optical density of 0.18 at 600 nm. A working suspension was made by a 1:50 dilution followed by a 1:20 dilution of the stock suspension with RPMI 1640 broth medium which was composed of L-glutamine without NaHCO3 (BioSera, France), and with 0.165 mol.l^−1 MOPS (Duchefa, Netherland)—further as RPMI broth medium.
(§6) The broth microdilution test was performed by using sterile, disposable, multi-well microdilution plates (96-well). The peptides in the concentrations 0.625-160 μmol.l^−1 were pipetted into the wells in 100 μl volumes. Each well of the plate was inoculated with 100 μl of the diluted inoculum suspension. Final yeast density in each well was 5×10^2 up to 2.5×10^3 CFU/ml. The microdilution plates were incubated without shaking at 35° C. and observed for the presence or absence of visible growth for 48 hours.
(§7) Drug-free medium without inoculation served as negative control; the growth positive control contained inoculated drug-free medium. Amphotericin B was used as control drug to ensure quality of Candida strains.
(§8) The minimal inhibition concentrations (MICs) were visually determined 48 hours after inoculation. The MIC values were defined as the lowest concentration in which no observable growth is noticeable.
(§9) All yeast isolates were obtained from the Institute of Physiology of the Academy of Sciences of the Czech Republic. Candida albicans (Olomouc) came from the Faculty of Medicine and Dentistry, Palacý University Olomouc.

Candida krusei ATCC 6258 = experiment: microbe, parasite or virus in culture; format: cell-based; conditions: RPMI broth microdilution, 35° C., 48 hours, visual
Method: as §3, §4, §5, §6, §7, §8, §9

Candida glabrata DSY 565 = experiment: microbe, parasite or virus in culture; format: cell-based; conditions: RPMI broth microdilution, 35° C., 48 hours, visual
Method: as §3, §4, §5, §6, §7, §8, §9

[9] = system: Candida albicans (Olomouc); experiment: microbe, parasite or virus in culture; format: cell-based; conditions: RPMI broth microdilution, 35° C., 48 hours, visual
Method: as §3, §4, §5, §6, §7, §8, §9

[10] = system: Candida glabrata ATCC 2001; experiment: microbe, parasite or virus in culture; format: cell-based; conditions: RPMI broth microdilution, 35° C., 48 hours, visual
Method: as §3, §4, §5, §6, §7, §8, §9

[11] = system: Candida tropicalis ATCC 750; experiment: microbe, parasite or virus in culture; format: cell-based; conditions: RPMI broth microdilution, 35° C., 48 hours, visual
Method: as §3, §4, §5, §6, §7, §8, §9

[12] = system: Candida albicans ATCC MYA-2876; experiment: microbe, parasite or virus in culture; format: cell-based; conditions: RPMI broth microdilution, 35° C., 48 hours, visual
Method: as §3, §4, §5, §6, §7, §8, §9

[13] = system: Candida albicans (Olomouc) biofilm; experiment: C. albicans biofilm, remaining metabolic activity (XTT); format: cell-based
Method: Candida albicans (Olomouc) was sub-cultured overnight in YPD medium (10 g yeast extract (DIFCO, USA), 20 g peptone (OXOID), 20 g glucose (Penta) dissolved in 1 L of distilled water) at constant shaking (100 RPM) at 37° C. Next day, the overnight culture was diluted 1:100 into fresh YPD medium and incubated at constant shaking (200 RPM) at 37° C. until the mid-exponential growth phase was reached. Then the cells were harvested and washed twice by centrifugation in physiological solution (5000 RPM; 5 min). Cells were suspended in sterile salt solution and their optical density was determined at 600 nm.
A final yeast suspension was prepared at a cell density of 1×10^6 CFU (corresponding to optical density of 0.17 at 600 nm) in RPMI 1640 medium with L-glutamine (BioSera), NaHCO3 (2 g/l; Penta) and 0.165 mol.l^−1 MOPS (Duchefa)—further as RPMI broth medium 1.
Biofilms were formed on commercially available sterile, polystyrene, flat-bottomed, 96-well microtiter plates (TPP, SW). Cell suspension (100 μl) was pipetted into selected wells of a microtiter plate and incubated without shaking for 2 hours at 37° C. Afterwards, the wells were washed twice with sterile PBS buffer (1.44 g Na2HPO4, 0.24 g KH2PO4, 0.2 g KCl and 8 g NaCl in 1 l distilled water, pH=7; Penta). Fresh RPMI broth medium 1 (100 μl) was added to each well and the plate was sealed with parafilm and incubated without shaking for 48 hours at 37° C.
Planktonic and non-adherent cells were removed by threefold washing of the biofilm with sterile PBS buffer (200 μl). A twofold serial dilution was used to reach required peptide concentration (in RPMI broth medium 1) in each well. Peptide concentrations range was between 0.39-200 μmol.l^−1. Plates were then sealed with parafilm and incubated for 20 hours at 37° C.
The metabolic activity of surviving Candida cells in the treated biofilm was determined by staining with XTT (2,3-Bis(2-methoxy-4-nitro-5-sulphophenyl)-2H-tetrazolium-5-carboxanilide). Stock solution of PMS (phenazine methosulfate; 7.5 g/l; SIGMA, Czech Republic) stored at −20° C. was diluted in PBS buffer 1:100. Diluted PMS was further mixed (2:25) with stock solution of XTT (0.5 g/l; Alchimica, Slovakia) dissolved in PBS/RPMI broth medium (1:1). Mixture (100 μl) of PMS and XTT was added into treated biofilm in the wells and incubated for 90 min at 37° C. Then the intensity of staining in each well was measured as absorbance at 540 nm on a Tecan Infinite M200 Pro reader (Tecan GmbH, Austria). Remaining metabolic activity of the cells in the biofilm was expressed for each well in percentage and calculated as follows:
[formula] where A is the absorbance of tested compound, ABL is the absorbance of negative control and AC is the absorbance of control untreated biofilm. The non-inoculated wells served as negative control. Inoculated wells not treated with compound served as positive control. Amphotericin B was used as control drug to ensure quality of Candida albicans. The values of remaining metabolic activity of treated biofilms are shown at Table 5.

Compound: H-GILSSLLKKLKKWIAK-NH2 [XVIII]
FIC indexes (fractional inhibitory concentration) Combination with RIF against P. aeruginosa (P. aeruginosa (Liberec); peptide combined with rifampicin): 0.271 | FIC indexes (fractional inhibitory concentration) Combination with TET against P. aeruginosa (P. aeruginosa (Liberec); peptide combined with tetracycline): 0.625 | HC50 at 1 h (in vitro): 160 µM | Antimicrobial activity MIC P. a. 5482 [1]: 8.0 µM | Antimicrobial activity MIC C. a. Olomouc (Candida albicans Olomouc): 16.0 µM | Antimicrobial activity MIC S. e. Motol [2]: 1.6 µM | Antimicrobial activity MIC S. a. 6271 [3]: 8.0 µM | Antimicrobial activity MIC E. f. Motol [4]: 25.3 µM | Antimicrobial activity MIC B. s. (Bacillus subtilis): 1.3 µM | Antimicrobial activity MIC S. a. Liberec [5]: 2.5 µM | Antimicrobial activity MIC S. a. Motol [6]: 4.0 µM | Antimicrobial activity MIC P. a. Liberec [7]: 20.7 µM | Antimicrobial activity MIC E. c. (Escherichia coli): 4.0 µM | Antifungal activity MIC C. dubliniensis ATCC MYA-646 [8]: 10.0 µM | Antifungal activity MIC C. krusei ATCC 6258 (Candida krusei ATCC 6258): 7.8 µM | Antifungal activity MIC C. glabrata DSY 565 (Candida glabrata DSY 565): 24.0 µM | Antifungal activity MIC C. albicans Olomouc [9]: 8.5 µM | Antifungal activity MIC C. glabrata ATCC 2001 [10]: 8.5 µM | Antifungal activity MIC C. tropicalis ATCC 750 [11]: 1.2 µM | Antifungal activity MIC C. albicans ATCC MYA-2876 [12]: 10.0 µM

MIC ([8]; Candida dubliniensis, read-out: Antifungal activity MIC C. dubliniensis ATCC MYA-646): 1.4 µM (≈ 0.483 µg/mL) | MIC (Candida krusei ATCC 6258; Pichia kudriavzevii, ATCC6258, read-out: Antifungal activity MIC C. krusei ATCC 6258): 1 µM (≈ 0.345 µg/mL) | MIC (Candida glabrata DSY 565; Nakaseomyces glabratus, DSY565, read-out: Antifungal activity MIC C. glabrata DSY 565): 35 µM (≈ 12.1 µg/mL) | MIC ([9]; Candida albicans, read-out: Antifungal activity MIC C. albicans Olomouc): 0.4 µM (≈ 0.138 µg/mL) | MIC ([10]; Nakaseomyces glabratus, ATCC2001, read-out: Antifungal activity MIC C. glabrata ATCC 2001): 14.2 µM (≈ 4.9 µg/mL) | MIC ([11]; Candida tropicalis, ATCC750, read-out: Antifungal activity MIC C. tropicalis ATCC 750): 4.6 µM (≈ 1.59 µg/mL) | MIC ([12]; Candida albicans, read-out: Antifungal activity MIC C. albicans ATCC MYA-2876): 0.3 µM (≈ 0.103 µg/mL)
Compound: Clc1ccccc1C(c1ccccc1)(c1ccccc1)n1ccnc1 [Clotrimazole, reference compound]
Metabolic activity of C. albicans (%) ([13]; peptide concentration 6.25 μmol · l^−1, 20 hours): 39.7% | Metabolic activity of C. albicans (%) ([13]; peptide concentration 12.5 μmol · l^−1, 20 hours): 37.6% | Metabolic activity of C. albicans (%) ([13]; peptide concentration 25 μmol · l^−1, 20 hours): 34.2% | Metabolic activity of C. albicans (%) ([13]; peptide concentration 50 μmol · l^−1, 20 hours): 28.4% | Metabolic activity of C. albicans (%) ([13]; peptide concentration 100 μmol · l^−1, 20 hours): 21.8% | Metabolic activity of C. albicans (%) ([13]; peptide concentration 200 μmol · l^−1, 20 hours): 22.2%

— patent US10160785B2, “Antimicrobial peptides and their use for the treatment of topical infections” (priority 2015, dated 2018)
